This is an account of results in PubChem BioAssay (NCI).

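Protocol summary: plate cells (96-well), add compound at 5 concentrations, incubate 48 h, interpolate endpoints linearly. Here, GI50 denotes the concentration required for 50% inhibition of growth. TGI: total growth inhibition.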

Common to all, as to assay: NCI anticancer screen, dose series, 48 h
The subject of assay [1] is BT-549 breast.
Assay [2] has as its system DLD-1 colon.
The subject of assay [3] is DMS 114 small cell lung.
The subject of assay [4] is DMS 273 small cell lung.
For assay [5], the system named is EKVX NSCLC.
The test system of assay [6] is HL-60(TB) leukemia.
For assay [7], the system named is LXFL 529 NSCLC.
Assay [8] has as its system M14 melanoma.
Assay [9] has as its system NCI/ADR-RES ovarian.
The subject of assay [10] is OVCAR-3 ovarian.
Assay [11] relates to TK-10 renal.
The subject of assay [12] is UO-31 renal.

For `C=C(CN(C)C)C(=O)c1cc(C)ccc1C`, the TGI in [1] was 32.5 µM; in assay [2], 7.47 µM; in assay [3] it was 21.4 µM; in [4], 39.3 µM; in [5] it was 55.3 µM; in [6], 0.446 µM. Besides, the TGI is 5.42 µM in assay [7]; 7.21 µM in assay [8]; above 85.1 µM in [9]; 18.1 µM in assay [10]; 20.4 µM in assay [11]; 19.1 µM in [12].
With `COc1ccc2c[n+](C)c3c4cc(OC)c(OC)cc4ccc3c2c1`, the TGI in assay [1] came to 10.8 µM; in [2], 42.2 µM; in assay [3], 4.16 µM; in assay [4], 12.5 µM; in [5], 54.7 µM; in assay [6] it was 32.4 µM. Also, the TGI in [7] is 12 µM; in assay [8], 32.1 µM; in [9] it was above 100 µM; in [10], 17.7 µM; in assay [11] it was 51.5 µM; in [12], 84.6 µM.
Regarding `O=C(N1CCC(CN=c2cc3n(-c4ccc(Cl)cc4)c4ccccc4nc-3cc2Nc2ccc(Cl)cc2)CC1)N1CC1`, the GI50 in [5] is 1.53 µM; in assay [6], 1.5 µM; in assay [10] it was 1.1 µM. The figures for the TGI in assay [5], in assay [6] and in assay [10] were 3.22 µM, 3.64 µM and 2.69 µM, respectively.
For `COc1cccc(C2C(C(=O)O)=C(CO)Oc3cc4c(cc32)OCO4)c1` (stereo unspecified), the TGI in assay [2], in assay [3], in [5], in [6], in [7] and in assay [8] was above 100 µM in each case. In addition, the TGI in assay [10], in assay [11] and in assay [12] was above 100 µM throughout.
Consider `CC(=O)[O-].CC(=O)[O-].O=C(N/N=C/c1cc(Cl)cc(Cl)c1[OH2+])c1ccncc1.[Zn+2]`, for which the TGI was above 100 µM in [5]; above 100 µM in [6]; above 100 µM in assay [8]; 94.8 µM in [10]; above 100 µM in [11]; above 100 µM in [12].
Take `CCN(CC)CCC(=O)c1ccccc1`: the TGI in assay [3] is 41.8 µM; in assay [4], 33.5 µM; in [5], above 100 µM; in assay [6], 43.9 µM; in assay [7], 32.1 µM; in assay [8] it was 31.5 µM. Besides, the figures for the TGI in assay [10], in assay [11] and in [12] were 38.8 µM, 43.4 µM and 93 µM, respectively.
On to `CCOC(=O)C1(C(=O)OCC)CSC1`, for which the TGI in assay [8], in [9], in [10], in assay [11] and in assay [12] was above 100 µM in each case.
Consider `CCSc1nc(N2CCCCC2)c2cn[nH]c2n1`, for which the GI50 was 20.1 µM in assay [1]; 16.1 µM in [5]; 27.4 µM in assay [6]; 92.5 µM in [9]; 27.9 µM in assay [10]; 36.8 µM in assay [11]. For the same molecule, the GI50 in [12] is 34 µM. Also, the TGI in assay [1] is 77.5 µM; in [5] it was above 100 µM; in [6], above 100 µM; in assay [9], above 100 µM; in assay [10] it was above 100 µM; in [11], above 100 µM. In assay [12], this molecule yielded a TGI above 100 µM.
As for `c1ccc(SC(Sc2ccccc2)c2ccc3c(c2)OCO3)cc1`, the TGI in [1], in [5], in assay [6], in [8], in assay [9] and in assay [10] was above 100 µM each time. Further, the TGI in assay [11] and in [12] was above 100 µM each time.
For the molecule `CCOc1ccc(N=Nc2ccc3oc(=O)c(/C(C)=N\NC(=O)CC(=O)Nc4ccc(Cl)cc4)cc3c2)cc1`, the TGI in assay [2] amounted to 32 µM; in assay [3] it was 42 µM; in assay [4], 37.3 µM; in assay [5], 34.7 µM; in assay [7] it was 27 µM; in assay [10], 30.4 µM. Also, the TGI in assay [11] was determined as 35.5 µM; in assay [12] it was 36.9 µM.
As for `COC(=O)C1=COC2OC3/C(=C\c4ccc(O)c(OC)c4)C(=O)OC34C=CC1C24` (stereo unspecified), the TGI in assay [2] worked out at 32.5 µM; in assay [3] it was 39.5 µM; in [4], 30 µM; in assay [6] it was 27.7 µM; in assay [7] it was 27.1 µM; in assay [8], 14.7 µM. The figures for the TGI in assay [10], in assay [11] and in [12] were 28.2 µM, 31 µM and 28.3 µM, respectively.
For the molecule `CC(=O)[O-].[Ni].c1ccc(/C(=N\Nc2ccccn2)c2ccccn2)cc1`, the TGI in [1] came out at 45.1 µM; in assay [2], 32.7 µM; in [3], 3.36 µM; in assay [4], 25.5 µM; in assay [5] it was 55.5 µM; in assay [6] it was 0.61 µM. The TGI in assay [7] was 16 µM; in assay [8], 17.8 µM; in [9] it was 25.9 µM; in [10], 19.5 µM; in [11], 20.7 µM; in assay [12], 18.8 µM. Also, the GI50 was 0.0973 µM in assay [5] and 0.0385 µM in [10].
Consider `O=C(O)c1cncc(C(=O)O)c1`, for which the TGI in assay [1], in [5], in [6], in assay [8], in [9] and in [10] was above 100 µM in each case. The TGI in [11] and in [12] was above 100 µM in each case.
Turning to `COc1ccc2c(c1)O[C@H]1c3ccc(O)cc3OC[C@@H]21`, the TGI in assay [2] is above 100 µM; in assay [4] it was above 100 µM; in [5], above 100 µM; in assay [6], 49.8 µM; in assay [7], 80.3 µM; in [8] it was 47.7 µM. Moreover, the results for the TGI in assay [10], in [11] and in assay [12] were above 100 µM, above 100 µM and 72.6 µM, respectively.
Consider `O=c1[nH]cc(N(CCCl)CCCl)c(=O)[nH]1`, for which the TGI in assay [1] amounted to 158 µM; in [2], 366 µM; in [3], 103 µM; in assay [4], 74.4 µM; in assay [5], 230 µM; in assay [6], 36.9 µM. The TGI in assay [7] was determined as 187 µM; in [8] it was 89.9 µM; in [9] it was 160 µM; in assay [10], 223 µM; in assay [11], 325 µM; in [12], 201 µM.
